The subject of the assay is RKO p21 uninduced (proliferating) colon adenocarcinoma cells. The assay can be described thus: Alamar Blue cell viability assay, RKO p21 uninduced (proliferating). Format: cell-based. To be noted: Homo sapiens, Table B3, anti-proliferative/cytotoxic activity, 72 hours, read-out: −log EC50 RKO p21 uninduced (proliferating) (converted). On the procedure: The anti-proliferative/cytotoxic activity of the compounds described herein can be tested on subclones of RKO human colon adenocarcinoma cells (Schmidt et al., Oncogene 19, 2423-2429; 2000) using the Alamar Blue cell viability assay (described in O'Brien et al. Eur J Biochem 267, 5421-5426, 2000). The compounds are dissolved as 10 mM solutions in DMSO and subsequently diluted in semi-logarithmic steps. DMSO dilutions are further diluted 1:100 into Dulbecco's modified Eagle's medium (DMEM) containing 10% fetal calf serum to a final concentration twice as much as the final concentration in the test. RKO subclones are seeded into 96 well flat bottom plates at a density of 4000 cells per well in a volume of 50 μl per well. 24 hours after seeding the 50 μl each of the compound dilutions in DMEM medium are added into each well of the 96 well plate. Each compound dilution is tested as triplicates. Wells containing untreated control cells are filled with 50 μl DMEM medium containing 1% DMSO. The cells are then incubated with the substances for 72 hours at 37° C. in a humidified atmosphere containing 5% carbon dioxide. To determine the viability of the cells, 10 μl of an Alamar Blue solution (Biosource) are added and the fluorescence is measured at an extinction of 544 nm and an emission of 590 nm. For the calculation of the cell viability the emission value from untreated cells is set as 100% viability and the emission rates of treated cells are set in relation to the values of untreated cells. Viabilities are expressed as % values. The Graphpad Prism program is used for the calculation of EC50 values for anti-proliferative/cytotoxic activity out of the obtained dose-response curves.
To determine the cell cycle specific mode of action, subclones of RKO colon adenocarcinoma cells (RKOp21 or RKOp27 as described by Schmidt et al. in Oncogene 19, 2423-2429; 2000) are seeded into 96 well flat bottom plates at a density of 16000 cells per well in a volume of 50 μl per well in DMEM growth medium with 10% FCS containing 10 μM Ponasterone A. 24 hours after seeding the 50 μl each of the compound dilutions in DMEM medium are added into each well of the 96-well plate. Each compound dilution is tested as triplicates. Wells containing untreated control cells are filled with 50 μl DMEM medium containing 1% DMSO. The cells are then incubated with the substances for 72 hours at 37° C. in a humidified atmosphere containing 5% carbon dioxide. To determine the viability of the cells, 10 μl of an Alamar Blue solution (Biosource) are added and the fluorescence is measured at an extinction of 544 nm and an emission of 590 nm. For the calculation of the cell viability the emission value from untreated cells is set as 100% viability and the emission rates of treated cells are set in relation to the values of untreated cells. Viabilities are expressed as % values. The Graphpad Prism program (GraphPad Software, Inc) is used for the calculation of EC50 values out of the obtained dose-response curves. Viability is compared of proliferating cells grown in the absence of the inducer Ponasterone A, versus viability of cells arrested by the expression of ectopic p27Kip1 induced by Ponasterone A.
Representative values for anti-proliferation/cytotoxicity [measured as −log EC50 (mol/l)] determined in the aforementioned assays follow from the following tables B1, B2 and B3, in which the numbers of the compounds correspond to the numbers of the examples.
Background: Alamar Blue is a resazurin reagent that responds to reducing activity.

Some results are limits rather than exact numbers.

What is called EC50 is the concentration at which the effect is half-maximal.

`COc1cc2c3c([nH]c2cc1F)[C@@H](c1cccc(O)c1)N1C(=O)N(CCCN2CCCCCC2)C(=O)[C@]1(C)C3` (racemic) [Example 329, (3aSR,10RS)-2-(3-Azepan-1-yl-propyl)-7-fluoro-10-(3-hydroxy-phenyl)-6-methoxy-3a-methyl-3a,4,9,10-tetrahydro-2,9,10a-triaza-cyclopenta[b]fluorene-1,3-dione]: the EC50 is 39.8 to 251 nM.
With `COc1ccc2[nH]c3c(c2c1)C[C@@]1(C)C(=O)N(CCCNCCO)C(=O)N1[C@@H]3c1cccc(O)c1` [Example 536, (3aS,10R)-2-[3-(2-Hydroxy-ethylamino)-propyl]-10-(3-hydroxy-phenyl)-6-methoxy-3a-methyl-3a,4,9,10-tetrahydro-2,9,10a-triaza-cyclopenta[b]fluorene-1,3-dione], the EC50 is not above 39.8 nM.
With `CCOc1ccc2[nH]c3c(c2c1)C[C@@]1(C)C(=O)N(CCCN(CC)CCOC)C(=O)N1[C@@H]3c1cccc(O)c1` (racemic) [Example 195, (3aSR,10RS)-6-Ethoxy-2-{3-[ethyl-(2-methoxy-ethyl)-amino]-propyl}-10-(3-hydroxy-phenyl)-3a-methyl-3a,4,9,10-tetrahydro-2,9,10a-triaza-cyclopenta[b]fluorene-1,3-dione] the figure was 39.8 to 251 nM; with `CN(CCO)CCCN1C(=O)N2[C@H](c3cccc(O)c3)c3[nH]c4ccc(OC(F)F)cc4c3C[C@@]2(C)C1=O` (racemic) [Example 453, (3aSR,10RS)-6-(1,1-Difluoro-methoxy)-2-{3-[(2-hydroxy-ethyl)-methyl-amino]-propyl}-10-(3-hydroxy-phenyl)-3a-methyl-3a,4,9,10-tetrahydro-2,9,10a-triaza-cyclopenta[b]fluorene-1,3-dione], not above 39.8 nM; with `CCOc1ccc2[nH]c3c(c2c1)C[C@@]1(C)C(=O)N(CCN(CC)CC)C(=O)N1[C@@H]3c1cccc(O)c1` (racemic) [Example 162, (3aSR,10RS)-2-(2-Diethylamino-ethyl)-6-ethoxy-10-(3-hydroxy-phenyl)-3a-methyl-3a,4,9,10-tetrahydro-2,9,10a-triaza-cyclopenta[b]fluorene-1,3-dione], 39.8 to 251 nM.
With `CN1CCN(CCCN2C(=O)N3[C@H](c4cccc(O)c4)c4[nH]c5cc(F)c(Cl)cc5c4C[C@@]3(C)C2=O)CC1` (racemic) [Example 481, (3aSR,10RS)-6-Chloro-7-fluoro-10-(3-hydroxy-phenyl)-3a-methyl-2-[3-(4-methyl-piperazin-1-yl)-propyl]-3a,4,9,10-tetrahydro-2,9,10a-triaza-cyclopenta[b]fluorene-1,3-dione] the figure was 39.8 to 251 nM; with `CC(C)N(C)CCCN1C(=O)N2[C@H](c3cccc(O)c3)c3[nH]c4ccc(Br)cc4c3C[C@@]2(C)C1=O` (racemic) [Example 218, (3aSR,10RS)-6-Bromo-10-(3-hydroxy-phenyl)-2-[3-(isopropyl-methyl-amino)-propyl]-3a-methyl-3a,4,9,10-tetrahydro-2,9,10a-triaza-cyclopenta[b]fluorene-1,3-dione], not above 39.8 nM.
With `CCN(CCO)CCCN1C(=O)N2[C@H](c3cccc(O)c3)c3[nH]c4ccc(Cl)cc4c3C[C@@]2(C)C1=O` (racemic) [Example 168, (3aSR,10RS)-6-Chloro-2-{3-[ethyl-(2-hydroxy-ethyl)-amino]-propyl}-10-(3-hydroxy-phenyl)-3a-methyl-3a,4,9,10-tetrahydro-2,9,10a-triaza-cyclopenta[b]fluorene-1,3-dione] the figure was not above 39.8 nM; with `CCN(C)CCCN1C(=O)N2[C@H](c3cccc(O)c3)c3[nH]c4cc(F)c(OC)cc4c3C[C@@]2(C)C1=O` (racemic) [Example 311, (3aSR,10RS)-2-[3-(Ethyl-methyl-amino)-propyl]-7-fluoro-10-(3-hydroxy-phenyl)-6-methoxy-3a-methyl-3a,4,9,10-tetrahydro-2,9,10a-triaza-cyclopenta[b]fluorene-1,3-dione], 39.8 to 251 nM; with `CNCCN1C(=O)N2[C@H](c3cccc(O)c3)c3[nH]c4cc(F)c(OC)cc4c3C[C@@]2(C)C1=O` (racemic) [Example 248, (3aSR,10RS)-7-Fluoro-10-(3-hydroxy-phenyl)-6-methoxy-3a-methyl-2-(2-methylamino-ethyl)-3a,4,9,10-tetrahydro-2,9,10a-triaza-cyclopenta[b]fluorene-1,3-dione], 39.8 to 251 nM.
`COc1cc2c3c([nH]c2cc1F)[C@@H](c1cccc(O)c1)N1C(=O)N(CCCNC(C)(C)C)C(=O)[C@]1(C)C3` (racemic) [Example 308, (3aSR,10RS)-2-(3-tert-Butylamino-propyl)-7-fluoro-10-(3-hydroxy-phenyl)-6-methoxy-3a-methyl-3a,4,9,10-tetrahydro-2,9,10a-triaza-cyclopenta[b]fluorene-1,3-dione]: the EC50 was 39.8 to 251 nM.
For `C=CCNCCCN1C(=O)N2[C@H](c3cccc(O)c3)c3[nH]c4ccc(OCC)cc4c3C[C@@]2(C)C1=O` (racemic) [Example 191, (3aSR,10RS)-2-(3-Allylamino-propyl)-6-ethoxy-10-(3-hydroxy-phenyl)-3a-methyl-3a,4,9,10-tetrahydro-2,9,10a-triaza-cyclopenta[b]bluorene-1,3-dione] the value was 39.8 to 251 nM.
For `CCN(CCOC)CCN1C(=O)N2[C@H](c3cccc(O)c3)c3[nH]c4cc(F)c(OC)cc4c3C[C@@]2(C)C1=O` (racemic) [Example 454, (3aSR,10RS)-2-{2-[Ethyl-(2-methoxy-ethyl)-amino]-ethyl}-7-fluoro-10-(3-hydroxy-phenyl)-6-methoxy-3a-methyl-3a,4,9,10-tetrahydro-2,9,10a-triaza-cyclopenta[b]fluorene-1,3-dione] the value was 39.8 to 251 nM; for `COc1ccc2[nH]c3c(c2c1)C[C@@]1(C)C(=O)N(CCCNCC2CC2)C(=O)N1[C@@H]3c1cccc(O)c1` [Example 535, (3aS,10R)-2-[3-(Cyclopropylmethyl-amino)-propyl]-10-(3-hydroxy-phenyl)-6-methoxy-3a-methyl-3a,4,9,10-tetrahydro-2,9,10a-triaza-cyclopenta[b]fluorene-1,3-dione], not above 39.8 nM; for `CC(=O)N1CCN(CCN2C(=O)N3[C@H](c4cccc(O)c4)c4[nH]c5ccc(Br)cc5c4C[C@@]3(C)C2=O)CC1` (racemic) [Example 387, (3aSR,10RS)-2-[2-(4-Acetyl-piperazin-1-yl)-ethyl]-6-bromo-10-(3-hydroxy-phenyl)-3a-methyl-3a,4,9,10-tetrahydro-2,9,10a-triaza-cyclopenta[b]fluorene-1,3-dione], not above 39.8 nM.
With `CCNCCN1C(=O)N2[C@H](c3cccc(O)c3)c3[nH]c4ccc(OC(F)F)cc4c3C[C@@]2(C)C1=O` (racemic) [Example 284, (3aSR,10RS)-6-(1,1-Difluoro-methoxy)-2-(2-ethylamino-ethyl)-10-(3-hydroxy-phenyl)-3a-methyl-3a,4,9,10-tetrahydro-2,9,10a-triaza-cyclopenta[b]fluorene-1,3-dione] the figure was not above 39.8 nM.
As for `C[C@@]12Cc3c([nH]c4ccc(OC(F)F)cc34)[C@@H](c3cccc(O)c3)N1C(=O)N(CCCN1CC=CC1)C2=O` (racemic) [Example 238, (3aSR,10RS)-6-(1,1-Difluoro-methoxy)-2-[3-(2,5-dihydro-pyrrol-1-yl)-propyl]-10-(3-hydroxy-phenyl)-3a-methyl-3a,4,9,10-tetrahydro-2,9,10a-triaza-cyclopenta[b]fluorene-1,3-dione], the EC50 is not above 39.8 nM.
For the compound `CC(C)CNCCCN1C(=O)N2[C@H](c3cccc(O)c3)c3[nH]c4ccc(Br)cc4c3C[C@@]2(C)C1=O` (racemic) [Example 213, (3aSR,10RS)-6-Bromo-10-(3-hydroxy-phenyl)-2-(3-isobutylamino-propyl)-3a-methyl-3a,4,9,10-tetrahydro-2,9,10a-triaza-cyclopenta[b]fluorene-1,3-dione], the EC50 is not above 39.8 nM.
